# Source: patent US20160095842A1 (priority 2013, published 2016)
# Values joined by “and” are separate entries in the source; they are usually repeats but may differ in a detail not shown here. Equal entries are not always repeated. “Also recorded” adds a separate entry of the source.
# How the values were obtained:
# [1] = tested on: pErk1/2 (pMAPK); test: Immunohistochemistry of RT112 tumors: pErk1/2 (pMAPK); assay type: in vivo, female Hsd: Athymic Nude-nu mice; details: 7 days, Compound A 50 mg/kg, Compound B 10 mg/kg, 2 hours after last treatment
# Experimental: (§1) Animals: Experiments are performed in female Hsd: Athymic Nude-nu mice obtained from Harlan Cpb, Germany. Animals are from 8 to 14 weeks of age at treatment start and housed under Optimized Hygienic Conditions in Makrolon type III cages (max. 10 animals per cage) with free access to food and water
# (§2) Establishment of RT112 tumors and compound treatments: The RT112 human urinary bladder carcinoma cell line was initially derived from a patient with untreated primary urinary bladder carcinoma in 1973 (Marshall et al. 1977, Masters et al. 1986). RT112 cells are cultured as in Example 1. Tumor establishment is done as in Example 2. Treatments are initiated when the mean tumor volumes are approximately 240 mm^3 (20 days post tumor cells injection).
# (§3) Dissection: 2 hours after the last treatment animals are anaesthetized by Forene inhalation narcosis and euthanized by cervical dislocation. Each tumor is dissected, is cut into two equal pieces and is processed for formalin-fixed paraffin embedded sectioning. […]
# (§4) Slides are mounted on a Ventana Discovery XT immunostainer and are processed for automated IHC by using a ChromoMAP kit and an OmniMAP anti Rabbit polymer-based amplification system. […] Endogenous peroxidase activities were subsequently quenched by using the ready to use solution from the ChromoMAP kit. […]
# [2] = tested on: FGFR kinase receptors 1-4 (FGFR1, FGFR2, FGFR3, and FGFR4); details: cited from earlier work
# [3] = tested on: RT112 urinary bladder carcinoma; test: Antitumor activity against s.c. RT112 tumors in nude mice; assay type: in vivo, female Hsd: Athymic Nude-nu mice; details: for Mean change of tumor volume / Final Tumor Volume: Clarke 1997 analysis table; for Final Tumor Volume: end of 14 days treatment, in mm³ (unit assumed)
# Experimental: as §1, with “start and are housed under” for “start and housed under”
# Establishment of RT112 tumors: The RT112 human urinary bladder carcinoma cell line was initially derived from a patient with untreated primary urinary bladder carcinoma in 1973. RT112 cells are cultured as in Example 1. To establish tumors, RT112 cells suspended in Hanks' balanced salt solution (HBSS) containing 50% Matrigel (BD #356234) are injected subcutaneously into the right flank. A total of 5×10^6 cells in 100 μl are injected per animal.
# Evaluation of antitumor activity: Treatments are initiated when the mean tumor volumes were approximately 180 mm^3 (14 days post tumor cells injection). Body weights and tumor volumes are recorded twice a week. Tumor volumes are measured with calipers and determined according to the formula length×diameter^2×π/6. In addition to presenting changes of tumor volumes over the course of treatments, antitumor activity is expressed as T/C % (mean change of tumor volume of treated animals/mean change of tumor volume of control animals)×100. Regressions (%) are calculated according to the formula ((mean tumor volume at end of treatment-mean tumor volume at start of treatment)/mean tumor volume at start of treatment)×100.
# Preparation of Compound Solutions: Vehicle control is prepared by mixing 250 μl 1-methyl-2-pyrrolidone (“NMP”)(Fluka #69118), 750 μl Polyethylene glycol 300 (“PEG300”)(Fluka, #81162), 500 μl Solutol HS15 (BASF, #51633963) and 1000 μl water.
# Statistics: For all tests, the level of significance is set at p<0.05. For tumor volumes, comparisons between treatment groups and vehicle control group are done using one-way ANOVA followed by Dunnett's test. The level of significance of body weight change within a group between the start and the end of the treatment period is determined using a paired t-test. Comparisons of delta body weighs between treatment and vehicle control groups are performed by a one-way ANOVA followed by a post hoc Dunnett's test. Calculations are performed using GraphPad Prism 6 for Windows (GraphPad Software Inc.).
# Estimation of drug-drug interaction: an approximation of drug interactions is made using the method described by Clarke R., “Issues in experimental design and endpoint analysis in the study of experimental cytotoxic agents in vivo in breast cancer and other models”, Breast Cancer Res. Treat., 46, 255-78 (1997) (“Clark 1997”). This is applied to ΔTV (Mean tumor volume at the end of the treatment period—mean tumor volume at the beginning of the treatment period).
# Upon performance of the foregoing experiment, the results are summarized in the table below: Ten millions RT-112 cells are injected subcutaneously into the right flank of female athymic nude mice on Day 0. On day 14, tumors are measured and mice are randomized into treatment groups with 8 mice per group. […] Statistics on Δ tumor volumes are performed with a one-way ANOVA, post hoc Dunnett's (*p<0.05 vs. vehicle controls) to compare treatment groups against the vehicle control group. For body weights, paired t tests between the weights at the beginning and the end of the treatment period are performed (*p<0.05).
# A compound interaction analysis with the method described by Clarke 1997 is conducted. In accordance with this method, the experimental data is interpreted as follows: antagonism is predicted when the calculation AB/C>B/C×A/C, additive interaction is predicted when the calculation AB/C=B/C×A/C, and synergistic when AB/C<B/C×A/C.
# [4] = tested on: pAKT (AKTpS473); test: Immunohistochemistry of RT112 tumors: pAKT; assay type: in vivo, female Hsd: Athymic Nude-nu mice; details: 7 days, Compound A 50 mg/kg, Compound B 10 mg/kg, 2 hours after last treatment
# Experimental: as §1, §2, §3, §4
# [5] = Compound A 50 mg/kg, Compound B 10 mg/kg, p.o., q24 h, 14 days
Structure (SMILES),inhibition of pErk1/2 (pMAPK) (immunohistochemistry) [1],selectivity for FGFR kinase receptors 1-4 [2],"T/C (%) (change in tumor volume, treated vs vehicle) ([3]; 10 mg/kg p.o. q24 h, 14 days, non-statistically significant)",Mean change of tumor volume [3],"Survival (survivors/total) [3, 5]","T/C (%) [3, 5] [%]","Mean change of tumor volume (mm^3 ± SEM) ([3]; Compound A 50 mg/kg, Compound B 10 mg/kg, p.o., q24 h, 14 days, *p<0.05 vs vehicle) [mm^3]","ratio to vehicle control (B/C, A/C, AB/C) ([3]; based on Final Tumor Volume)","ratio to vehicle control (B/C, A/C, AB/C) ([3]; based on Mean change of tumor volume)",Final Tumor Volume [3],"% change of body weight [3, 5] [%]","Regression (%) [3, 5]","Mean change of body weight (g ± SEM) ([3]; Compound A 50 mg/kg, Compound B 10 mg/kg, p.o., q24 h, 14 days, *p<0.05 paired t test) [g]",inhibition of pAKT (immunohistochemistry) [4]
"CCN1CCN(c2ccc(Nc3cc(N(C)C(=O)Nc4c(Cl)c(OC)cc(OC)c4Cl)ncn3)cc2)CC1 [Compound B, 3-(2,6-dichloro-3,5-dimethoxy-phenyl)-1-{6-[4-(4-ethylpiperazin-1-l)-phenylamino]-pyrimidin-4-yl}-1-methyl-urea]",strongly inhibits; also recorded: significantly inhibits,highly selective,54.4,145.6,8/8,54.4,145.6 ± 66.5,0.728,0.544,327.2,,,,
"Cc1nc(NC(=O)N2CCC[C@H]2C(N)=O)sc1-c1ccnc(C(C)(C)C(F)(F)F)c1 [Compound A, (S)-Pyrrolidine-1,2-dicarboxylic acid 2-amide 1-({4-methyl-5-[2-(2,2,2-trifluoro-1,1-dimethyl-ethyl)-pyridin-4-yl]-thiazol-2-yl}-amide)]",,,,−2,8/8,,,,,179.4,−0.8,1.1% and −1.1%,-0.2 ± 0.4,strongly inhibits; also recorded: significantly inhibits
